Test results taken from US12551536B2, “Semaglutide in medical therapy” (Novo Nordisk A/S, priority 2017, dated 2026).

Assay: 26-week clinical trial in adult patients with T2D: gastrointestinal adverse events incl. nausea
Format: in vivo, human
Conditions: on-treatment
Method: A 26-week, randomized, double-blind clinical trial was carried out with adult patients with T2D, HbA1c 7.0-10.0% (53-86 mmol/mol), and body mass index 24.0-40.0 kg/m^2 who were treated with diet and exercise±metformin. […] The primary endpoint was change in HbA1c from baseline to week 26. Key exclusion criteria were a history of chronic or idiopathic acute pancreatitis and moderate-to-severe renal impairment (estimated glomerular filtration rate <60 mL/min/1.73 m^2).
Trial drug administration: Following a 2-week screening period, patients received trial medication for 26 weeks, followed by a 7-week follow-up period. […] The trial was double blinded within (but not between) each dose level of semaglutide, liraglutide and placebo, as treatment was volume matched.

[1] = Sema 0.05 mg once daily s.c., N 64
[2] = Sema 0.1 mg once daily s.c., N 63
[3] = Sema 0.2 mg once daily s.c., N 65
[4] = Sema 0.3 mg once daily s.c., N 63

With “N^6.26-{18-[N-(17-carboxyheptadecanoyl)-L-γ-glutamyl]-10-oxo-3,6,12,15-tetraoxa-9,18-diazaoctadecanoyl}-[8-(2-amino-2-propanoic acid),34-L-arginine]human glucagon-like peptide 1(7-37) [Sema]” as the substance, how does the “Gastrointestinal adverse events, % (percentage of patients experiencing at least one event)” value (Sema 0.05 mg once daily s.c.) read?
Its value is 32.8%.

And the “Gastrointestinal adverse events, E (number of events)” value (“Gastrointestinal adverse events, E” below) (Sema 0.05 mg once daily s.c.)?
The value was 61.

What about the “Nausea, % (percentage of patients experiencing at least one event)” value (Sema 0.05 mg once daily s.c.) of the same substance?
Its value is 17.2%.

What about the “Nausea, E (number of events)” value (Sema 0.05 mg once daily s.c.) of the same substance?
Its value is 16.

And the “Gastrointestinal adverse events, Ne (number of patients experiencing at least one event)” value (“Gastrointestinal adverse events, Ne” below) [1]?
Its value is 21.

What about the “Nausea, Ne (number of patients experiencing at least one event)” value (shortened to “Nausea, Ne”) [1] of the same substance?
Its value is 11.

What about the “Gastrointestinal adverse events, % (percentage of patients experiencing at least one event)” value (Sema 0.1 mg once daily s.c.) of the same substance?
The value was 44.4%.

And the “Gastrointestinal adverse events, E” value (Sema 0.1 mg once daily s.c.)?
The value was 90.

And the “Nausea, % (percentage of patients experiencing at least one event)” value (Sema 0.1 mg once daily s.c.)?
Its value is 19.0%.

And the “Nausea, E (number of events)” value (Sema 0.1 mg once daily s.c.)?
Its value is 20.

What about the “Gastrointestinal adverse events, Ne” value [2] of the same substance?
Its value is 28.

And the “Nausea, Ne” value [2]?
Its value is 12.

And the “Gastrointestinal adverse events, % (percentage of patients experiencing at least one event)” value (Sema 0.2 mg once daily s.c.)?
The value was 46.2%.

What about the “Gastrointestinal adverse events, E” value (Sema 0.2 mg once daily s.c.) of the same substance?
Its value is 106.

What about the “Nausea, % (percentage of patients experiencing at least one event)” value (Sema 0.2 mg once daily s.c.) of the same substance?
The value was 21.5%.

What about the “Nausea, E (number of events)” value (Sema 0.2 mg once daily s.c.) of the same substance?
The value was 22.

What about the “Gastrointestinal adverse events, Ne” value [3] of the same substance?
Its value is 30.

And the “Nausea, Ne” value [3]?
The value was 14.

What about the “Gastrointestinal adverse events, % (percentage of patients experiencing at least one event)” value (Sema 0.3 mg once daily s.c.) of the same substance?
The value was 54.0%.

What about the “Gastrointestinal adverse events, E” value (Sema 0.3 mg once daily s.c.) of the same substance?
The value was 101.

And the “Nausea, % (percentage of patients experiencing at least one event)” value (Sema 0.3 mg once daily s.c.)?
The value was 25.4%.

And the “Nausea, E (number of events)” value (Sema 0.3 mg once daily s.c.)?
Its value is 22.

And the “Gastrointestinal adverse events, Ne” value [4]?
The value was 34.

And the “Nausea, Ne” value [4]?
Its value is 16.
